According to patent publication US6933315B2, “Derivatives of isoindigo, indigo and indirubin and methods of treating cancer” (priority 2001, dated 2005):
Where two headings read alike, the source gives them in different places.

Columns and labels:
SKBR-3 = assay: Growth inhibition by MTT, SKBR-3 breast cancer cells; type: cell-based, Human; details: Homo sapiens, read-out: IC50 SKBR-3
Experimental: (§1) Growth inhibitory effects of NATURA and other agents on human cancer cells were determined by standard MTT (3-(4,5-dimethylthiazol-2-yl)-2,5-diphenyltetrazolium bromide Test) as described previously. Briefly, cancer cells grown exponentially were aliquoted into 96-well plates at a density of 5000 cells/200 μl per well in RPMI 1640 medium containing 10% FBS overnight. The cells in the plates were then exposed to series of dilution of indicated agent. After 72 h of incubation, 100 μl of the medium was removed from each of the wells and 50 μl of a 1 mg/ml solution of 3-(4,5-dimethylthiazol-2-yl)-2,5-diphenyltetrazolium bromide (MTT) was added to each well and the cells were incubated for additional 4 h. 200 μl of solution of 0.04 N HCl-isopropanol was added to each well to dissolve the black fromazan participates, and absorbance at 540 nm was measured on a 96-Well.

Lewis Lung Cancer = assay: Anticancer activity in Lewis lung carcinoma animal model; type: in vivo, C57 mice; details: mice, oral, Indirubin 100 × 9, Meisoindigo 106 × 9 mg/kgxd
Experimental: Briefly, C57 mice, body weight between 18 to 22 grams, and rat, body weight between 50 to 55 grams, were randomly divided into several groups, ten of each, respectively. Approximately 2×10^6 of Lewis cancer cells or Walker sarcoma cells were transplanted into mice or rat. […] The animals in the control group were given 0.1 ml saline (drug vehicle, negative control) for the same periods of time as treated group. The animals at end of the treatment were sacrificed and tumors were removed and weighed.

[1] = system: poly(ADP-ribose) polymerase (PARP); assay: PARP degradation by Western blot in N2A cells; type: cell-based, Mouse; details: 24 hours
Experimental: Induction of Apoptosis: As we mentioned previously that cancer cells probably have two options after arrest at G1 phase, i.e. differentiation or apoptosis. […] The cells were harvested, washed and DNA extracted. Approximately 2 μg per lane of DNA were subjected to 2% agarose gel electrophoresis. […] The cells were harvested, washed, and total proteins extracted for determination of PARP degradation by Western blotting as described previously. Upper panels (A & B) are imagines from ECL films, and lower panels (A′ & B′) are densities of the corresponding bands measured by an Imagine Densitometer (expressed as the percent of control).

LNCaP = assay: Growth inhibition by MTT, LNCaP prostate cancer cells; type: cell-based, Human; details: Homo sapiens, LNCaP
Experimental: as §1, with “Briefly, cancer cells grown exponentially were aliquoted into 96-well plates at a density of 5000 cells/200 μl per well in RPMI 1640 medium containing 10% FBS overnight.” left out
(§2) The cells in the plates were then exposed to series of dilution of indicated agent. After 72 h of incubation, 100 μl of the medium was removed from each of the wells and 50 μl of a 1 mg/ml solution of 3-(4,5-dimethylthiazol-2-yl)-2,5-diphenyltetrazolium bromide (MTT) was added to each well and the cells were incubated for additional 4 h. 200 μl of solution of 0.04 N HCl-isopropanol was added to each well to dissolve the black fromazan participates, and absorbance at 540 nm was measured on a 96-Well Microplate Reader. Each experiment was repeated at least three times.

MCF-7 = assay: Growth inhibition by MTT, MCF-7 breast cancer cells; type: cell-based, Human; details: Homo sapiens, MCF7, 72 h exposure
Experimental: as §1
as §2, with “FIGS. 3-5 show the anticancer affects of NATURA in MCF-7 breast cancer cells, DLD-1 colon cancer cells, and LNCaP hormone-dependent prostate cancer cells. The cancer cells grown exponentially were aliquoted into 96-well plates at a density of 5000 cells/200 μl per well in RPMI 1640 medium containing 10% fetal bovine serum (FBS) overnight. The” for “The”

ML-1 cells = assay: Morphological differentiation of ML-1 cells; type: cell-based, human; details: 5 days after exposure
Chronic toxicity in dogs = type: in vivo
Experimental: On the basis of above initial tests, the sub-acute toxicities of Meisoindigo were further examined in dogs. Twelve dogs were randomly divided into 3 groups each having equal numbers of males and females, and orally given Meisoindigo at doses of 0, 5, and 10 mg/kg daily, respectively, for 6 months. […] All parameters tested, in all animals, including controls fluctuated within normal ranges.
Twenty-four hours after the termination of Meisoindigo, half of the animal of each group were sacrificed, and dissected for pathological examination.

cyclin D1 = assay: Cyclin D1 protein level by Western blot in HUVEC cells; type: cell-based, human; details: 24 hrs; for cyclin D1 protein: 15 μM; for expression of cyclin D1: 5.0 and 15 μM
Experimental: Meisoindigo and NATURA also significant inhibit expression of cyclin D1 in HUVEC cells. Exponentially growing HUVEC cells were exposed to 5.0 and 15 μM of Meisoindigo and NATURA, 24 hrs after the exposures, the cells were harvested, washed, and total proteins extracted for Western blot analysis using a monoclonal antibody specific against cyclin D1 (Dako). […] As a result, phosphorylation of a tumor suppressor protein Rb, a native substrate of cyclin D1 mediated cdks, was diminished (data not shown).
HUVEC cells grown exponentially were treated for 24 hrs with […] of Meisoindigo and NATURA. The cells were harvested, washed, and total proteins extracted for Western blot analysis as previously described using antibodies specifically against cyclin D1 (panel A), and b-actin (equal loading control, panel B), and detected by ECL detection kit (Amersham). The levels of cyclin D1 from Panel A were quantitated by an imagine densitometor and normalized by b-action (Panel C).

LOVO = assay: Growth inhibition by MTT, LOVO colon cancer cells; type: cell-based, Human; details: Homo sapiens, LoVo; MTT, 72 h exposure; read-out: IC50 LOVO
Experimental: as §1

[2] = MTT, 72 h exposure (Table 3), read-out: IC50 LNCaP
[3] = oral, 5 and 10 mg/kg daily for 6 months

SMILES	IC50 (SKBR-3; SK-BR-3, 72 h) [nM]	Inhibition (%) (Lewis Lung Cancer)	Tumor Size X ± SD (Lewis Lung Cancer)	PARP protein degradation [1]	IC50 (LNCaP; [2]) [nM]	IC50 (MCF-7) [nM]	ML-1 cells differentiated morphologically (ML-1 cells)	pathological examination of heart, liver, lung, kidney, stomach, gastro intestine, testis, ovary, lymph node (Chronic toxicity in dogs; 24 hours after termination of 6 months dosing)	clinical observations (Chronic toxicity in dogs; [3])	hemogram, functions of liver (SGPT), kidney (BUN) and heart (ECG) vs control (Chronic toxicity in dogs; [3])	cyclin D1 protein (cyclin D1)	expression of cyclin D1 (cyclin D1)	IC50 (LOVO) [nM]	IC50 (SKBR-3; SK-BR-3, MTT, 72 h exposure) [nM]	IC50 (LNCaP; Table 10, read-out: IC50 in LNCaP cells (NATURA and its derivatives)) [nM]
CN1C(=O)/C(=C2/C(=O)Nc3ccccc32)c2ccccc21 [Meisoindigo]	2170 ± 170	48.6 ± 4.1	1.80 ± 0.15	strong induction	2340 ± 330	4370 ± 310	approximately 48%	No abnormalities	minor gastro-intestinal irritations	No significant differences	almost completely lost	strongly inhibit	5760 ± 720	–	–
CC(=O)OC1COC(N2C(=O)/C(=C3/C(=O)Nc4ccccc43)c3ccccc32)C(OC(C)=O)C1OC(C)=O [NATURA, 1-(β-D-O-Triacetyl-xylopyranosyl)-isoindigo]	–	–	–	strong induction	1720 ± 270	2910 ± 280	approximately 48%	–	–	–	almost completely lost	strongly inhibit	4310 ± 590	1710 ± 140	1720
